From the supplement of paper PMC11061612

How the values were obtained:
Test in all cases: combination Emax (second highest fraction inhibited in the dose matrix, 72 h); higher = more inhibition; extreme values may be limits of the assay
[1] = test system: OSC-20 (Oral Cavity Carcinoma)
Procedure, shortened: (§1)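 Cell lines grown in DMEM/F12 or RPMI with 10% FBS were plated in 1536-well plates and held 24 hours at 37°C, 5% CO2 before 72 hours of exposure to two-drug dose matrices, with DMSO typically at 0.2%. CellTiter-Glo 2.0 luminescence gave viability, which was converted to inhibition. Vehicle wells were set to 0 and blank wells to 1. Combination Emax is the second-highest inhibition in the matrix, and Bliss excess is the observed combination effect minus the expected EA + EB − EA·EB, where EA and EB are the single-agent effects.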

[2] = test system: NEC8 (Other Solid Carcinomas)
Procedure, shortened: as §1

[3] = test system: NCI-H727 (Other Solid Carcinomas)
Procedure, shortened: as §1

[4] = test system: Ca9-22 (Head and Neck Carcinoma)
Procedure, shortened: as §1

[5] = test system: NB69 (Neuroblastoma)
Procedure, shortened: as §1

[6] = test system: MIA-PaCa-2 (Pancreatic Carcinoma)
Procedure, shortened: as §1

[7] = test system: EFM-19 (Breast Carcinoma)
Procedure, shortened: as §1

[8] = test system: C-4-I (Cervical Carcinoma)
Procedure, shortened: as §1

[9] = test system: SU8686 (Pancreatic Carcinoma)
Procedure, shortened: as §1

[10] = test system: PANC-04-03 (Pancreatic Carcinoma)
Procedure, shortened: as §1

[11] = test system: UACC-62 (Melanoma)
Procedure, shortened: as §1

[12] = test system: TGW (Neuroblastoma)
Procedure, shortened: as §1

[13] = test system: ACHN (Kidney Carcinoma)
Procedure, shortened: as §1

[14] = test system: D-263MG (Glioblastoma)
Procedure, shortened: as §1

[15] = test system: RF-48 (B-Cell Non-Hodgkin's Lymphoma)
Procedure, shortened: as §1

[16] = test system: VA-ES-BJ (Other Solid Carcinomas)
Procedure, shortened: as §1

[17] = test system: BT-549 (Breast Carcinoma)
Procedure, shortened: as §1

[18] = test system: KYSE-450 (Esophageal Squamous Cell Carcinoma)
Procedure, shortened: as §1

[19] = test system: HOP-62 (Lung Adenocarcinoma)
Procedure, shortened: as §1

[20] = test system: Hs-766T (Pancreatic Carcinoma)
Procedure, shortened: as §1

Compound | combination Emax [1] | combination Emax [2] | combination Emax [3] | combination Emax [4] | combination Emax [5] | combination Emax [6] | combination Emax [7] | combination Emax [8] | combination Emax [9] | combination Emax [10] | combination Emax [11] | combination Emax [12] | combination Emax [13] | combination Emax [14] | combination Emax [15] | combination Emax [16] | combination Emax [17] | combination Emax [18] | combination Emax [19] | combination Emax [20]
CN(C)CCCOc1ccc(-c2ccc3ncc4c(c3c2)n(C2CCOCC2)c(=O)n4C)cn1 [AZD0156] + C=CCn1c(=O)c2cnc(Nc3ccc(N4CCN(C)CC4)cc3)nc2n1-c1cccc(C(C)(C)O)n1 [AZD1775] (first compound max 1 µM, partner max 1 µM) | 0.233 | 0.336 | 0.333 | 0.721 | 0.877 | 0.595 | 0.607 | 0.755 | 0.208 | 0.471 | 0.391 | 0.769 | 0.933 | 0.38 | 0.602 | 0.381 | 0.613 | 0.583 | 0.266 | 0.43
CN(C)CCCOc1ccc(-c2ccc3ncc4c(c3c2)n(C2CCOCC2)c(=O)n4C)cn1 [AZD0156] + CCN(CCO)CCCOc1ccc2c(Nc3cc(CC(=O)Nc4cccc(F)c4)[nH]n3)ncnc2c1 [AZD2811] (first compound max 1 µM, 7x7, partner max 1 µM) | 0.353 | 0.146 | 0.155 | 0.127 | 0.588 | 0.376 | 0.383 | 0.147 | 0.0439 | 0.0564 | 0.188 | 0.356 | 0.135 | 0.329 | 0.305 | 0.245 | 0.221 | 0.193 | 0.0853 | 0.0844
CN(C)CCCOc1ccc(-c2ccc3ncc4c(c3c2)n(C2CCOCC2)c(=O)n4C)cn1 [AZD0156] + C[C@@H]1COCCN1C2=NC(=NC(=C2)C3(CC3)[S@](=N)(=O)C)C4=C5C=CNC5=NC=C4 [AZD6738] (first compound max 1 µM, 7x7, partner max 10 µM) | 0.334 | 0.877 | 0.635 | 0.925 | 0.745 | 0.605 | 0.345 | 0.872 | 0.365 | 0.615 | 0.555 | 0.833 | 0.883 | 0.857 | 0.588 | 0.699 | 0.46 | 0.649 | 0.546 | 0.607
CN(C)CCCOc1ccc(-c2ccc3ncc4c(c3c2)n(C2CCOCC2)c(=O)n4C)cn1 [AZD0156] + O=C(c1cc(Cc2n[nH]c(=O)c3ccccc23)ccc1F)N1CCN(C(=O)C2CC2)CC1 [Olaparib] (first compound max 3 µM, partner max 3 µM) | 0.245 | 0.277 | 0.286 | 0.465 | 0.474 | 0.226 | 0.533 | 0.362 | 0.146 | 0.32 | 0.183 | 0.413 | 0.338 | 0.196 | 0.319 | 0.284 | 0.102 | 0.159 | 0.122 | 0.207
C=CCn1c(=O)c2cnc(Nc3ccc(N4CCN(C)CC4)cc3)nc2n1-c1cccc(C(C)(C)O)n1 [AZD1775] + C1CN(CCC1(C(=O)N[C@@H](CCO)C2=CC=C(C=C2)Cl)N)C3=NC=NC4=C3C=CN4 [Capivasertib] (first compound max 3 µM, partner max 3 µM) | 0.619 | 0.985 | 0.667 | 0.921 | 0.942 | 0.585 | 0.71 | 0.97 | 0.202 | 0.571 | 0.458 | 0.889 | 0.825 | 0.696 | 0.86 | 0.645 | 0.638 | 0.843 | 0.428 | 0.325
C=CCn1c(=O)c2cnc(Nc3ccc(N4CCN(C)CC4)cc3)nc2n1-c1cccc(C(C)(C)O)n1 [AZD1775] + C[C@@H]1COCCN1C2=NC(=NC(=C2)C3(CC3)[S@](=N)(=O)C)C4=C5C=CNC5=NC=C4 [AZD6738] (first compound max 1 µM, partner max 10 µM) | 0.401 | 0.932 | 0.654 | 0.957 | 0.971 | 0.956 | 0.672 | 0.93 | 0.384 | 0.63 | 0.622 | 0.97 | 0.964 | 0.908 | 0.669 | 0.822 | 0.808 | 0.946 | 0.668 | 0.643
Cc1c2c(nn1C)CSCc1cc(n(C)n1)CSc1cc(c3ccccc3c1)OCCCc1c(C(=O)O)n(C)c3c-2c(Cl)ccc13 [AZD5991] + C1CN(CCC1(C(=O)N[C@@H](CCO)C2=CC=C(C=C2)Cl)N)C3=NC=NC4=C3C=CN4 [Capivasertib] (first compound max 1 µM, 7x7, partner max 3 µM) | 0.199 | 0.431 | 0.374 | 0.242 | 0.794 | 0.244 | 0.629 | 1 | 0.129 | 0.186 | 0.934 | 0.326 |  | 0.958 | 0.353 | 0.227 | 0.432 | 0.376 | 0.257 | 0.23
Cc1c2c(nn1C)CSCc1cc(n(C)n1)CSc1cc(c3ccccc3c1)OCCCc1c(C(=O)O)n(C)c3c-2c(Cl)ccc13 [AZD5991] + CN(C)CCCOc1ccc(-c2ccc3ncc4c(c3c2)n(C2CCOCC2)c(=O)n4C)cn1 [AZD0156] (first compound max 1 µM, 7x7, partner max 1 µM) | 0.256 | 0.291 | 0.289 | 0.256 | 0.666 | 0.289 | 0.494 | 1 | 0.16 | 0.24 | 0.812 | 0.293 | 0.179 | 0.711 |  | 0.243 | 0.334 | 0.251 | 0.473 | 0.372
O=C(c1cc(Cc2n[nH]c(=O)c3ccccc23)ccc1F)N1CCN(C(=O)C2CC2)CC1 [Olaparib] + COc1nnc2ccc(N3CCC(c4ccc(OCCN5CCN(C)C(=O)[C@H]5C)cc4)CC3)nn12 [AZD5153] (first compound max 10 µM, 7x7, partner max 1 µM) |  |  | 0.288 | 0.625 | 0.959 | 0.852 | 0.367 |  |  | 0.52 | 0.491 | 0.476 | 0.539 | 0.343 | 0.354 |  | 0.462 | 0.235 |  | 0.396
O=C(c1cc(Cc2n[nH]c(=O)c3ccccc23)ccc1F)N1CCN(C(=O)C2CC2)CC1 [Olaparib] + Cc1c2c(nn1C)CSCc1cc(n(C)n1)CSc1cc(c3ccccc3c1)OCCCc1c(C(=O)O)n(C)c3c-2c(Cl)ccc13 [AZD5991] (first compound max 10 µM, 7x7, partner max 1 µM) |  |  | 0.106 | 0.212 | 0.886 | 0.161 | 0.272 |  |  | 0.0799 | 0.568 | 0.192 | 0.177 | 0.562 | 0.365 |  | 0.217 | 0.0895 |  | 0.0824
CCc1c2c(nc3ccc(O)cc13)-c1cc3c(c(=O)n1C2)COC(=O)[C@]3(O)CC [SN-38] + O=C(c1cc(Cc2n[nH]c(=O)c3ccccc23)ccc1F)N1CCN(C(=O)C2CC2)CC1 [Olaparib] (first compound max 0.3 µM, 7x7, partner max 10 µM) | 0.746 | 1 | 0.256 | 0.868 | 0.967 | 0.935 | 0.566 | 0.928 |  | 0.465 | 0.843 | 0.668 | 0.912 | 0.703 | 0.775 | 0.818 | 0.636 | 0.671 | 0.672 | 0.415
Cc1nc(-c2cn3c(n2)-c2ccc(-c4cnn(C(C)(C)C(N)=O)c4)cc2OCC3)n(C(C)C)n1 [Taselisib] + O=C(Nc1ccc2[nH]nc(-c3ccncc3)c2c1)[C@@H]1CCN(CC(=O)N2CCN(c3ccc(-c4ncccn4)cc3)CC2)C1 [SCH772984] (first compound max 10 µM, 7x7, partner max 5 µM) |  |  | 0.958 | 0.938 | 0.997 | 0.797 | 0.693 |  |  | 0.905 | 0.955 | 0.516 | 0.692 | 0.892 | 0.36 |  | 0.501 | 0.725 |  | 0.676
CC1(C)CCC(CN2CCN(c3ccc(C(=O)NS(=O)(=O)c4ccc(NCC5CCOCC5)c([N+](=O)[O-])c4)c(Oc4cnc5[nH]ccc5c4)c3)CC2)=C(c2ccc(Cl)cc2)C1 [Venetoclax] + CS(=O)(=O)CCNCc1ccc(-c2ccc3ncnc(Nc4ccc(OCc5cccc(F)c5)c(Cl)c4)c3c2)o1 [Lapatinib] (first compound max 1 µM, 7x7, partner max 10 µM) |  |  | 0.246 | 0.777 | 0.598 | 0.272 | 0.207 |  |  | 0.291 | 0.256 | 0.459 | 0.52 | 0.108 | 0.34 |  | 0.249 | 0.34 |  | 0.208
